Here are results for 13 compounds from patent publication US4039540A, “3-Substituted quinoxaline-2-carboxamide-1,4-dioxides” (Pfizer Inc., priority 1975, dated 1977).

The subject of assay [1] is E. coli. In words: in vivo activity in mice infected with a lethal inoculum of E. coli. Conditions: Escherichia coli, sc, subcutaneous, multiple dosing, read-out: IN VIVO E. coli, number of survivors among the treated animals. As to the method:
(§1) In determining the in vivo activity of the quinoxaline-1,4-dioxides of this invention, the test compound is administered to mice which have been infected by […] injection of a lethal inoculum of pathogenic bacteria. The test compound is administered using a multiple dosing regimen and using either the oral (PO) or the subcutaneous (SC) route. The inoculum of bacteria varies from about 1 to about 10 times the amount needed to kill 100% of the mice under the conditions of the test. At the end of the test, the activity of the compound is assessed by counting the number of survivors among the treated animals.
(§2) In vitro and in vivo activity of representative compounds of this invention, determined as aforesaid, are reported in the following tabulation for compounds of the formula: [drawing 12]

Assay [2] deals with Strep. pyogenes. In words: in vivo activity in mice infected with a lethal inoculum of Strep. pyogenes. The conditions noted are these: Streptococcus pyogenes, multiple dosing. As to the method: as §1, §2
Assay [3] concerns Strep. pyrogens. In words: in vitro antibacterial activity, two-fold serial dilution in Brain-Heart Infusion Broth (MIC). The format is cell-based. The conditions noted are these: overnight, anaerobic. As to the method:
(§3) The broth is inoculated with bacteria and with the test quinoxaline-1,4-dioxide and then it is incubated overnight under anerobic conditions. On the next day, the test is read visually. The minimum inhibitory concentration (MIC) of test compound is the lowest concentration which prevents turbidity, i.e., which prevents growth of the microorganism.
as §2

Assay [4] relates to E. coli. The assay is described as above. Conditions: Escherichia coli, overnight, anaerobic. In kind it is cell-based. As to the method: as §3, §2
The mark [5] stands for this setting: oral, read-out: IN VIVO Strep. pyogenes, number of survivors among the treated animals, PO (data in parenthesis).
The mark [6] stands for this setting: sc, subcutaneous, read-out: IN VIVO Strep. pyogenes, number of survivors among the treated animals.

Each structure is given as a SMILES string. Values after ≈ are worked out from the molar mass of the structure shown. Read-outs that look alike come from different tables or passages of the source.

Regarding `CCN(CC)CCCS(=O)(=O)Cc1c(C(=O)N(C)C)[n+]([O-])c2ccccc2[n+]1[O-]` [N(CH3)2; SO2 (CH2)3 N(CH2 CH3)2; H], the responders at 25 mg/kg in assay [1] is 0%. Further, the responders at 50 mg/kg in assay [2] (setting [5]) is 10%; in assay [2] (setting [6]) it was 60%. Moreover, the figures for the MIC in assay [3] and in assay [4] were 6.25 µg/mL (≈ 14.7 µM) and 25 µg/mL (≈ 58.9 µM), respectively.
Consider `CN(C)CCCS(=O)(=O)Cc1c(C(=O)N(C)C)[n+]([O-])c2ccccc2[n+]1[O-]` [N(CH3)2; SO2 (CH2)3 N(CH3)2; H], for which the responders at 25 mg/kg in assay [1] amounted to 100%. Moreover, the responders at 50 mg/kg in assay [2] (setting [5]) came out at 60%; in assay [2] (setting [6]), 100%. For the same compound, the MIC in assay [3] and in assay [4] was 3.12 µg/mL (≈ 7.88 µM) each time.
For the compound `CN(C)C(=O)c1c(CS(=O)(=O)CCCN2CCCC2)[n+]([O-])c2ccccc2[n+]1[O-]` [N(CH3)2; drawing 15; H], the responders at 25 mg/kg in assay [1] is 80%. Besides, the minimal inhibitory concentration (MIC) in assay [3] was determined as 3.12 µg/mL (≈ 7.4 µM); in assay [4], 6.25 µg/mL (≈ 14.8 µM).
Consider `CN(C)C(=O)c1c(CS(=O)(=O)CCCN2CCOCC2)[n+]([O-])c2ccccc2[n+]1[O-]` [N(CH3)2; drawing 19; H], for which the responders at 25 mg/kg in assay [1] was 20%. Further, the responders at 50 mg/kg in assay [2] (setting [5]) was 10%; in assay [2] (setting [6]), 0%. The minimum inhibitory concentration (MIC) in assay [3] and in assay [4] was 25 µg/mL (≈ 57 µM) each time.
Turning to `CN(C)C(=O)c1c(CS(=O)(=O)CCCN2CCCCC2)[n+]([O-])c2ccccc2[n+]1[O-]` [N(CH3)2; drawing 27; H], the responders at 25 mg/kg in assay [1] was found to be 90%. Besides, the responders at 50 mg/kg in assay [2] (setting [5]) and in assay [2] (setting [6]) was 100% each time. Moreover, the MIC in assay [3] and in assay [4] was 3.12 µg/mL (≈ 7.16 µM) each time.
As for `CCN(CC)CCCS(=O)(=O)Cc1c(C(N)=O)[n+]([O-])c2ccccc2[n+]1[O-]` [NH2; SO2 (CH2)3 N(CH2 CH3)2; H], in assay [1], the responders at 25 mg/kg was 80%. Also, the responders at 50 mg/kg in assay [2] (setting [5]) is 50%; in assay [2] (setting [6]) it was 90%. For the same compound, the MIC was found to be 3.12 µg/mL (≈ 7.88 µM) in assay [3] and 6.25 µg/mL (≈ 15.8 µM) in assay [4].
Take `CN(C)CCCS(=O)(=O)Cc1c(C(N)=O)[n+]([O-])c2ccccc2[n+]1[O-]` [NH2; SO2 (CH2)3 N(CH3)2; H]: the responders at 25 mg/kg in assay [1] amounted to 50%. Besides, the responders at 50 mg/kg in assay [2] (setting [5]) amounted to 20%; in assay [2] (setting [6]), 100%. Besides, the MIC came out at 1.56 µg/mL (≈ 4.24 µM) in assay [3] and 25 µg/mL (≈ 67.9 µM) in assay [4].
Turning to `NC(=O)c1c(CS(=O)(=O)CCCN2CCCC2)[n+]([O-])c2ccccc2[n+]1[O-]` [NH2; drawing 14; H], the responders at 25 mg/kg in assay [1] was 50%. Besides, the MIC in assay [3] amounted to 6.25 µg/mL (≈ 15.8 µM); in assay [4] it was 12.5 µg/mL (≈ 31.7 µM).
In the same order, the values of `CN(C)CCNC(=O)c1c(CS(=O)(=O)CCCN2CCCCC2)[n+]([O-])c2ccccc2[n+]1[O-]` [NHCH2 CH2 N(CH3)2; drawing 21; H] are 40%, 50 µg/mL (≈ 104 µM) and 100 µg/mL (≈ 209 µM).
Regarding `CCNC(=O)c1c(CS(=O)(=O)CCCCN(C)C)[n+]([O-])c2ccccc2[n+]1[O-]` [NHCH2 CH3; SO2 (CH2)4 N(CH3)2; H], the responders at 25 mg/kg in assay [1] was 20%. In addition, the MIC in assay [3] is 12.5 µg/mL (≈ 30.5 µM); in assay [4] it was 50 µg/mL (≈ 122 µM).
`CCNC(=O)c1c(CS(=O)(=O)CCCN2CCCC2)[n+]([O-])c2ccccc2[n+]1[O-]` [NHCH2 CH3; drawing 16; H]: in assay [1], the responders at 25 mg/kg is 60%. The minimum inhibitory concentration (MIC) in assay [3] worked out at 12.5 µg/mL (≈ 29.6 µM); in assay [4], 50 µg/mL (≈ 118 µM).
For `CNC(=O)c1c(CS(=O)(=O)CCCCN(C)C)[n+]([O-])c2ccccc2[n+]1[O-]` [NHCH3; SO2 (CH2)4 N(CH3)2; H] the same measures were 40%, 50 µg/mL (≈ 126 µM) and 50 µg/mL (≈ 126 µM).
In the same order, the values of `CNC(=O)c1c(CS(=O)(=O)CCCN2CCCC2)[n+]([O-])c2ccccc2[n+]1[O-]` [NHCH3; drawing 13; H] are 80%, 3.12 µg/mL (≈ 7.65 µM) and 6.25 µg/mL (≈ 15.3 µM).

The MIC is the smallest concentration in the dilution series that meets the test's criterion for growth inhibition. Low values mean a more susceptible organism, high ones a less susceptible organism.
